From US9073961B2, “Substitution derivatives of N6 -benzyladenosine-5′-monophosphate, methods of preparation thereof, use thereof as medicaments, and therapeutic preparations containing these compounds” (UNIVERZITA PALACKEHO V OLOMOUCI, priority 2010, dated 2015)

What was measured:
Type in all cases: cell-based
[1] = system: G-361 (human malignant melanoma); experiment: Calcein AM cytotoxicity assay, G-361; settings: 72 hours incubation
From the text: Because toxic compounds negatively influence metabolic processes in cells, many standard cytotoxicity assays are based on measurement of metabolisation rate of various artificial substrates. Resulting product is then quantified e.g. by means of spectrometry. The assays can be easily modified for use in 96-well plates. For evaluation of cytotoxic effect of the novel substituted 9-substituted cytokinin derivatives of this invention, a microtiter assay based on quantification of metabolisation of Calcein AM was used. The assay is widely used in drug screening programs and in chemosensitivity testing. In the living cells, Calcein AM is enzymatically hydrolysed and accumulation of resulting calcein is manifested by green fluorescence.
In the routine screening the following cell lines have been used: CEM (T-lymphoblastoid leukemia), HL-60 (promyelocytic leukemia), K-562 (human erythroleukemia), MCF-7 (breast carcinoma), HOS (human osteogenic sarcoma), and G-361 (human malignant melanoma). Normal human fibroblasts BJ were used as a control for routine screening of the compounds. The cells were kept in Nunc/Corning 80 cm^2 plastic bottles and grown in cell culture medium (DMEM containing 5 g/l glucose, 2 mM glutamine, 100 U/ml penicilline, 100 μg/ml streptomycine, 10% fetal bovine serum and sodium hydrogencarbonate), the compounds were prepared according to the procedure of the present invention.
The cell suspensions were prepared and diluted according to the particular cell type and the expected target cell density (2.500-30.000 cells per well based on cell growth characteristics) and pippetted (80 μl) into 96-well plates. Inoculates were allowed a pre-incubation period of 24 hours at 37° C. and 5% CO2 for stabilisation. Tested compound was added in total volume of 20 μl of water at time zero. Usually, test compound was evaluated at six 3-fold dilutions. In routine testing, the highest concentration tested was 166.7 μM. All drug concentrations were tested in triplicates. Incubations of cells with the test compounds lasted for 72 hours at 37° C., in 5% CO2 atmosphere and 100% humidity. At the end of incubation period Calcein AM in PBS was added into final concentration of 1 μg/ml. After another 1 hour of incubation fluorescence (FD) was measured with the Labsystem FIA Reader Fluoroscan Ascent (Microsystems). Tumor cell survival (TCS) was estimated using the following equation: […]=(FDdrug exposed well/FDcontrol well)×100%. The GI50 value, the drug concentration causing 50% reduction of esterase activity, was calculated from the obtained dose response curves (FIG. 1).
Cytoxicity of novel compounds was tested on panel of cell lines of different histogenetic and species origin (Table 3). […] The effective novel derivatives killed tumour cells in concentrations close to 0.1-50 μM.

MCF-7 (breast carcinoma) = experiment: Calcein AM cytotoxicity assay, MCF7; settings: 72 hours incubation
Procedure, shortened: (§1)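 Growth inhibition over 72 h of compound treatment, read by calcein fluorescence (Calcein AM 1 μg/ml final, 1 h). GI50 calculated from triplicate six-point, 3-fold dose-response curves starting at 166.7 μM.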

[2] = system: CEM (T-lymphoblastoid leukemia); experiment: Calcein AM cytotoxicity assay, CEM
Procedure, shortened: as §1

[3] = system: Normal human fibroblasts BJ; experiment: Calcein AM cytotoxicity assay, BJ; settings: 72 hours incubation
Procedure, shortened: as §1

Human lymphocytes = experiment: Immunosuppressive activity, 3H-thymidine incorporation in concanavalin A activated lymphocytes; settings: 72 hours, [3H]-TdR incorporation, read-out: Human lymphocytes ED50
Procedure, shortened: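 Ficoll-separated peripheral blood mononuclear cells from healthy donors, stimulated with concanavalin A and exposed to six 4-fold compound dilutions (top 266.7 μM) for 72 h at 37 °C. Proliferation read by 6 h [3H]-thymidine pulse and scintillation counting; ED50 taken from dose-response curves versus control wells.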

[4] = system: HOS (human osteogenic sarcoma); experiment: Calcein AM cytotoxicity assay, HOS; settings: 72 hours incubation
Procedure, shortened: as §1

EC50 (Human lymphocytes): 6.7 µM
SMILES: O=P(O)(O)OC[C@H]1O[C@@H](n2cnc3c(NCc4ccccc4O)ncnc32)[C@H](O)[C@@H]1O [Compound 21, 6-(2-hydroxybenzylamino)purine riboside-5′-monophosphate]
GI50 [1]: 13.5 µM
GI50 (MCF-7 (breast carcinoma)): 10.5 µM
GI50 ([2]; 72 hours incubation, Calcein AM): 1.3 µM
IC50 ([2]; FIG. 2 legend): 1.3 µM
GI50 [3]: 43.2 µM
GI50 [4]: 2.5 µM
